Measured values from patent US8377974B2 (Millennium Pharmaceuticals, Inc., priority 2004, dated 2013).

Molecular target: T1, human plasma protein factor Xa (Homo sapiens, UniProt P00742)
T1 construct: measure proteolytic activity of the enzyme (factor Xa); purchased Haematologic Technologies (Essex Junction, Vt.); host or cells: human plasma
Experiment: Factor Xa IC50 determination: cleavage of paranitroanilide substrate S-2765 in 96-well plates
Format: biochemical
Settings: fXa 1 nM, S-2765 100 μM, Tris buffered saline pH 7.4, room temperature
Method in brief: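 Initial rates of S-2765 (100 μM final) cleavage, read at 405 nm for 2 min, fitted with a four-parameter equation to give IC50. Enzyme: 1 nM human plasma fXa, 5 min room-temperature preincubation with inhibitor (0.01 nM–10 μM) in 20 mM Tris, 150 mM NaCl, 5 mM CaCl2, 0.1% BSA, 5% DMSO, pH 7.4; duplicates.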

T1 sequence (P00742 235-488 limits assumed): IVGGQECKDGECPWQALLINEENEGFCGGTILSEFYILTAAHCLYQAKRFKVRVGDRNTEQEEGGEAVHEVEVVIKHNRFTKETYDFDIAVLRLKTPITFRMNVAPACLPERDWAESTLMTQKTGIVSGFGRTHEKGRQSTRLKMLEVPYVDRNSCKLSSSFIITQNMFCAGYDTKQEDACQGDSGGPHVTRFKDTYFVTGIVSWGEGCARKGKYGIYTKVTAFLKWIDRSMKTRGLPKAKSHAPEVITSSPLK
T1 sequence (P00742 41-179 partner limits assumed): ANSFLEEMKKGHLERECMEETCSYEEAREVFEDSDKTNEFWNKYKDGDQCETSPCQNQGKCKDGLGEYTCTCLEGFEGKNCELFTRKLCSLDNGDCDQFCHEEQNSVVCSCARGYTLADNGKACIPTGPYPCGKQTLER

| IC50 [nM] | SMILES |
| --- | --- |
| ≥ 500 | CN(c1ccc(C2=NOC(CNC(=O)c3ccc(Cl)s3)C2)cc1)c1ccnc(N)n1 (centres unmarked) [Example 231, 5-Chloro-thiophene-2-carboxylic acid (3-{4-[(2-amino-pyrimidin-4-yl)-methyl-amino]-phenyl}-4,5-dihydro-isoxazol-5-ylmethyl)-amide] |
| ≥ 500 | CSc1ccccc1-c1ccc(C2=NOC(CNC(=O)c3ccc(Cl)s3)C2)cc1 (centres unmarked) [Example 185, 5-Chloro-thiophene-2-carboxylic acid [3-(2′-methylsulfanyl-biphenyl-4-yl)-4,5-dihydro-isoxazol-5-ylmethyl]-amide] |
| ≤ 100 | O=C(NCC1CC(c2ccc(N3CCOCC3=O)cc2)=NO1)c1ccc(Cl)s1 (centres unmarked) [Example 243, 5-Chloro-thiophene-2-carboxylic acid {3-[4-(3-oxo-morpholin-4-yl)-phenyl]-4,5-dihydro-isoxazol-5-ylmethyl}-amide] |
| ≤ 100 | N=C(c1ccc(-c2noc(CNC(=O)c3ccc(Cl)s3)n2)cc1)N1CCCC1 [Example 336, 5-Chloro-N-((3-(4-(imino(pyrrolidin-1-yl)methyl)phenyl)-1,2,4-oxadiazol-5-yl)methyl)thiophene-2-carboxamide] |
| ≥ 500 | N=C(c1ccc(-c2csc(CNC(=O)c3ccc(Cl)s3)n2)cc1)N1CCCC1 [Example 362, 5-Chloro-N-((4-(4-(imino(pyrrolidin-1-yl)methyl)phenyl)thiazol-2-yl)methyl)thiophene-2-carboxamide] |
| ≥ 500 | Cc1ccc(-c2cc(CNC(=O)c3ccc(Cl)s3)on2)cc1 [Example 149, 5-Chloro-thiophene-2-carboxylic acid (3-p-tolyl-isoxazol-5-ylmethyl)-amide] |
| ≤ 100 | N=C(c1ccc(-c2nc(CNC(=O)c3ccc(Cl)s3)co2)cc1)N1CCCC1 [Example 340, 5-Chloro-N-((2-(4-(imino(pyrrolidin-1-yl)methyl)phenyl)oxazol-4-yl)methyl)thiophene-2-carboxamide] |
| ≤ 100 | CN(c1ccncc1)c1ccc(C2=NOC(CNC(=O)c3ccc(Cl)s3)C2)cc1 (centres unmarked) [Example 227, 5-Chloro-thiophene-2-carboxylic acid {3-[4-(methyl-pyridin-4-yl-amino)-phenyl]-4,5-dihydro-isoxazol-5-ylmethyl}-amide] |
| ≤ 100 | CCN(C)C(=N)c1ccc(-n2cc(CNC(=O)c3ccc(Cl)s3)nn2)cc1 [Example 314, N-((1-(4-(N-Ethyl-N-methylcarbamimidoyl)phenyl)-1H-1,2,3-triazol-4-yl)methyl)-5-chlorothiophene-2-carboxamide] |
| 100 to 500 | CN(C)CCN(C)C(=N)c1ccc(-c2nc(CNC(=O)c3ccc(Cl)s3)co2)cc1 [Example 345, N-((2-(4-(N-(2-(Dimethylamino)ethyl)-N-methylcarbamimidoyl)phenyl)oxazol-4-yl)methyl)-5-chlorothiophene-2-carboxamide] |
| ≥ 500 | O=C(NCc1cc(-c2cccc(Br)c2)no1)c1ccc(Cl)s1 [Example 4, 5-Chloro-thiophene-2-carboxylic acid [3-(3-bromo-phenyl)-isoxazol-5-ylmethyl]-amide] |
| ≤ 100 | CCOc1cc(C(=N)N2CCCCC2)ccc1-c1cc(CNC(=O)c2ccc(Cl)s2)on1 [Example 125, 5-Chloro-thiophene-2-carboxylic acid {3-[2-ethoxy-4-(imino-piperidin-1-yl-methyl)-phenyl]-isoxazol-5-ylmethyl}-amide] |
| ≤ 100 | O=C(NCC1CC(c2ccc(C(=O)N3CC=CC3)cc2)=NO1)c1ccc(Cl)s1 (centres unmarked) [Example 397, 5-Chloro-N-((3-(4-(2,5-dihydro-1H-pyrrole-1-carbonyl)phenyl)-4,5-dihydroisoxazol-5-yl)methyl)thiophene-2-carboxamide] |
| ≤ 100 | CN(C)c1cc(C(=N)N2CCCC2)ccc1-c1cc(CNC(=O)c2ccc(Cl)s2)on1 [Example 96, 5-Chloro-thiophene-2-carboxylic acid {3-[2-dimethylamino-4-(imino-pyrrolidin-1-yl-methyl)-phenyl]-isoxazol-5-ylmethyl}-amide] |
